The test system of data set [1] is Leukemia P388. Format: in vivo, male BDF1 mice; murine tumor. The conditions noted are these: for T/C: MST. As for the experimental part:
(§1) BU-3129T (3,7-dihydroxytropolone) and its analogs were tested for in vitro cytotoxicity against logarithmically growing murine melanoma tumor cells in liquid culture. B16-F10 cells (4×10^4 cells) in the enriched MEM (Minimum essential medium (Eagle's)) containing test material solution were planted into wells of 96-well microtiter plates and incubated at 37° C., with 5% CO2 under high humidity for 72 hours. After staining with neutral red, cytotoxicity of test material was determined colorimetrically. The inhibitory effects on macromolecule biosynthesis were examined in cultured L1210 leukemia cells. L1210 cells (5×10^5 cells) were exposed to radioactive precursors (^3 H-thymidine, ^14 C-uridine and ^3 H-leucine) for 60 min after the treatment with test material for 15 min. The incorporated radioactivities into acid-insoluble fractions were measured by using a liquid scintillation counter. The in vivo antitumor activity of BU-3129T was determined in male BDF1 mice against leukemia P388 and melanoma B16. Leukemia P388 and melanoma B 16 were inoculated by the intraperitoneal injection at 10^6 cells and 0.5 ml of a 10% tumor brei per mouse, respectively. Test material was administered to mice intraperitoneally once daily through 1 to 9 days after tumor implantation. Tropolone and mitomycin C were comparatively tested in the experiments.

For data set [2] the following is noted: Kirst, et. al., J. Antibiotics 1982; cited from earlier work.
For data set [3], the system named is B16-F10 murine melanoma tumor cells. Briefly: In vitro cytotoxicity against B16-F10 melanoma cells (72 h, neutral red). The data set is classed as cell-based. As for the experimental part: as §1
For data set [4], the system named is Melanoma B16. As to the kind of experiment: In vivo antitumor activity against melanoma B16 in mice, Exp. 1. Also noted: species or system male BDF1 mice; murine tumor. Particulars: for T/C: MST. As for the experimental part: as §1
Data set [5] relates to Melanoma B16. As to the kind of experiment: In vivo antitumor activity against melanoma B16 in mice, Exp. 2. The arrangement: species or system male BDF1 mice; murine tumor. The conditions noted are these: for Average weight change on day 5: B16 Exp. 2, qd 1→9, ip. As for the experimental part: as §1
[6] abbreviates: B16 Exp. 1, 0.16 mg/kg/day, qd 1→9, ip.
[7] abbreviates: B16 Exp. 1, 0.31 mg/kg/day, qd 1→9, ip.
Where [8] appears, read: B16 Exp. 1, 0.63 mg/kg/day, qd 1→9, ip.
Where [9] appears, read: B16 Exp. 1, 1.3 mg/kg/day, qd 1→9, ip.
Setting [10] is: B16 Exp. 1, 2.5 mg/kg/day, qd 1→9, ip.
Where [11] appears, read: P388, 0.63 mg/kg/day, qd 1→9, ip.
Where [12] appears, read: B16 Exp. 1, 0.1 mg/kg/day, qd 1→9, ip.
Where [13] appears, read: B16 Exp. 1, 0.3 mg/kg/day, qd 1→9, ip.
The mark [14] stands for this setting: B16 Exp. 1, 1.0 mg/kg/day, qd 1→9, ip.

Read-outs that look alike come from different tables or passages of the source.

Broadly, the T/C is the result in the treated group divided by that in the control group, in per cent.

Take `O=c1c(O)cccc(O)c1O` [BU-3129T, 3,7-dihydroxytropolone]: the “Antitumor activity against leukemia P388 (in words)” value in data set [1] (mice bearing murine tumors, ip) is listed as “no activity”. In addition, in data set [2], the Antimicrobial activity result is “possesses antimicrobial activity”. For the same compound, the “Potency in the in vitro cytotoxicity test” value in data set [3] is on record as “most potent”. Moreover, the “Average weight change on day 5” value in data set [4] (setting [6]) is “+0.4 g”; in data set [4] (setting [7]), “+1.2 g”; in data set [4] (setting [8]), “+1.0 g”; in data set [4] (setting [9]), “+0.4 g”; in data set [4] (setting [10]) it was -0.8 g. Besides, the MST in data set [4] (setting [6]) is 16.0 days; in data set [4] (setting [7]), 18.0 days; in data set [4] (setting [8]) it was 23.0 days; in data set [4] (setting [9]), 29.0 days; in data set [4] (setting [10]), 12.0 days. In data set [4] (B16 Exp. 1, 5.0 mg/kg/day, qd 1→9, ip), the “tox” value was “tox”. Besides, the T/C is listed as 100% in data set [4] (setting [6]); 113% in data set [4] (setting [7]); 144% in data set [4] (setting [8]); 181% in data set [4] (setting [9]); 75% in data set [4] (setting [10]). Besides, the “Antitumor activity against melanoma B16 (in words)” value in data set [4] (mice bearing murine tumors, ip) is “significant antitumor activity”. In addition, the “Inhibitory action against mammalian malignant tumors (in words)” value in data set [4] (overall conclusion from the data) is on record as “marked inhibitory action”.

As to `CO[C@@]12[C@H](COC(N)=O)C3=C(C(=O)C(C)=C(N)C3=O)N1C[C@@H]1N[C@@H]12` [Mitomycin C, reference compound], the MST was found to be 21.0 days in data set [1] (setting [11]), 22.0 days in data set [4] (setting [13]) and 27.0 days in data set [4] (setting [14]). For the same compound, the T/C in data set [1] (P388, 0.08 mg/kg/day, qd 1→9, ip) was found to be 114%; in data set [1] (P388, 0.16 mg/kg/day, qd 1→9, ip), 143%; in data set [1] (P388, 0.31 mg/kg/day, qd 1→9, ip), 152%; in data set [1] (setting [11]), 200%; in data set [1] (P388, 1.3 mg/kg/day, qd 1→9, ip) it was 200%; in data set [4] (setting [12]), 100%. Moreover, the results for the T/C in data set [4] (setting [13]) and in data set [4] (setting [14]) were 128% and 169%, respectively. For the same compound, the entries for the “Average weight change on day 5” value in data set [4] (setting [12]), in data set [4] (setting [13]) and in data set [4] (setting [14]) were “+1.0 g”, “+0.4 g” and “+0.6 g”, respectively.

In the case of `O=c1cccccc1O` [Tropolone], the “Average weight change on day 5” value in data set [5] (1.0 mg/kg/day) is on record as “+2.3 g”; in data set [5] (3.0 mg/kg/day), “+2.5 g”; in data set [5] (10 mg/kg/day), “+3.3 g”; in data set [5] (30 mg/kg/day), “+2.0 g”. Further, in data set [5] (at the doses tested), the “Antitumor activity against melanoma B16 (in words)” value is reported as “did not show any activity”.

Values taken from patent US4883758A, “Biologically pure culture of the microorganism Streptomycas tropolofaciens used for producing 3,7-dihydroxytropolone and antitumor use” (priority 1989, dated 1989).
